Measured values: US6699459B2, “Methods of treating lung inflammation” (The Board of Regents of the University of Texas System, priority 2001, dated 2004)

What was measured:
Assay type in all cases: cell-based, human
RANTES ISRE = test: EMSA of RANTES ISRE binding complexes, nuclear extracts of RSV-infected A549 cells; settings: RSV 12 hours, 400 μM
Experimental: Electrophoretic mobility shift assay (EMSA): Nuclear extracts of uninfected and infected A549 cells were prepared using hypotonic/nonionic detergent lysis, as previously described (20). Proteins were normalized by protein assay (Protein Reagent, Bio-Rad, Hercules, Calif.) and used to bind to a duplex oligonucleotide corresponding to the RANTES ISRE, whose sequences is shown below:
DNA-binding reactions contained 10-15 μg nuclear proteins, 5% glycerol, 12 mM HEPES, 80 mM NaCl, 5 mM dithiothreitol (DTT), 5 mM Mg2Cl, 0.5 mM EDTA, 1 μg of poly dI-dC and 40,000 cpm of ^32P-labeled double-stranded oligonucleotide in a total volume of 20 μl. The nuclear proteins were incubated with the probe for 15 minutes at room temperature and then fractionated by 6% nondenaturing polyacrylamide gels (PAGE) in TBE buffer (22 mM Tris-HCl, 22 mM boric acid, 0.25 mM EDTA, pH 8). After electrophoretic separation, gels were dried and exposed for autoradiography using Kodak XAR film at −70° C. using intensifying screens.

IRF-3 = test: Western blot of nuclear IRF-3 in RSV-infected A549 cells
Experimental: Western Immunoblot. Total cell lysates and cytoplasmic and nuclear proteins were prepared as previously described, fractionated by SDS-PAGE and transferred to PVDF membrane (20). Membranes were blocked with 5% albumin in TBS-Tween and incubated overnight with a rabbit polyclonal antibody to IRF-1, -3 and -7 (Santa Cruz Biotech, Santa Cruz, Calif.). For secondary detection, a horseradish-coupled anti-rabbit or anti-mouse antibody was used in the enhanced chemiluminescence assay (Amersham Pharmacia Biotec, Arlington Heights, Ill.).

STAT-3 = test: Western blot of phosphorylated and total nuclear STAT-3 in RSV-infected A549 cells; settings: nuclear proteins, 400 μM
Experimental: Western Immunoblot. Nuclear proteins were prepared as previously described, fractionated by SDS-PAGE and transferred to PVDF membrane (20). Membranes were blocked with 5% albumin in TBS-Tween and incubated overnight with antibody recognizing the tyrosine phosphorylated form of STAT-1 and STAT-3 (Santa Cruz Biotech, Santa Cruz, Calif.). Membranes were stripped and reprobed with antibodies to STAT-1 and STAT-3 (Santa Cruz Biotech, Santa Cruz, Calif.). For secondary detection, a horseradish-coupled anti-rabbit or anti-mouse antibody was used (Santa Cruz Biotech, Santa Cruz, Calif.) in the enhanced chemiluminescence assay (Amersham Life Science, Arlington Heights, Ill.).

A549 cells = test: Total number of cells and cell viability by trypan blue exclusion; settings: 400 μM, data not shown
Experimental: Cell culture and infection of epithelial cells with RSV. A549, human alveolar type II-like epithelial cells (ATCC, Manassas, Va.), were maintained in F12K medium containing 10% (v/v) fetal bovine serum (FBS), 10 mM glutamine, 100 IU/ml penicillin and 100 μg/ml streptomycin. Small alveolar epithelial cells (SAE) were obtained from Clonetics (San Diego, Calif.) and grown according to the company instructions. Cell monolayers were infected with RSV at multiplicity of infection (MOI) of 1 (unless otherwise stated), as described (17). An equivalent amount of a 20% sucrose solution was added to uninfected A549 cells, as a control. For the antioxidant experiments, cells were pretreated with the antioxidants for one hour and then infected in the presence of the antioxidants. Since BHA was diluted in ethanol, equal amounts of ethanol were added to untreated cells, as a control. Total number of cells, cell viability and viral replication, following antioxidant treatment, were measured by trypan blue exclusion and by plaque assay, respectively.

Compound: COc1ccc(O)c(C(C)(C)C)c1 [BHA, butylated hydroxyanisol]
- RSV-induced RANTES ISRE binding (RANTES ISRE): completely abolished
- the other RSV-inducible nuclear form of IRF-3 (IRF-3): not affected
- RSV-induced STAT-3 nuclear translocation (STAT-3): completely inhibited
- RSV-induced STAT-3 phosphorylation (STAT-3): completely abolished
- total cell number and viability (A549 cells): unchanged
